Experiments:
p38α/MK2 = p38α/MK2 (Homo sapiens, UniProt Q16539); assay: p38α/MK2 cascade assay (IMAP, Hsp27 peptide phosphorylation); type: biochemical; conditions: for IC50: p38α/MK2 cascade, Hsp27 peptide 1 μM, MgATP 10 μM, 120 minutes, read-out: p38/MK2 IC50; for Selectivity Ratio: ratio of p38α/PRAK:p38α/MK2 IC50 values
Protocol: (§1) P38 inhibitory potency and P38/MK2 substrate selectivity: The novel, MK2 substrate-selective inhibitory mechanism of compounds is evaluated in enzyme assays that compare inhibitor potency in blocking p38/MK2 versus p38/PRAK induced phosphorylation of an HSP-27 derived peptide substrate. The ability of compounds to inhibit activated phospho-p38α is evaluated using a p38α/MK2 and a p38α/PRAK cascade assay format. The kinase activity of p38α is determined by its ability to phosphorylate and activate GST-MK2 or GST-PRAK. The kinase activity of activated MK2 and PRAK is followed by measuring the phosphorylation of a fluorescently-labeled, peptide substrate based on the sequence of Hsp27 (FITC-KKKALSRQLSVAA). The phosphorylation of the Hsp27 peptide is quantified using IMAP assay technology (Molecular Devices) and the Analyst HT plate reader (LJL Biosystems). Kinase reactions are carried out in a 384-well plate (Corning 3575) in 20 mM HEPES pH 7.5, 10 mM MgCl2, 0.0005% Tween-20, 0.01% BSA, 1 mM DTT, and 2% DMSO. The inhibitor concentration varies between 0.5-30,000 nM, while the Hsp27 peptide substrate and MgATP are held constant at 1 μM and 10 μM, respectively. Activated p38α is added to a final concentration of 20 pM for reactions with 1 nM nonphosphorylated 1 nM GST-MK2. For the p38α/PRAK cascade, unactivated GST-PRAK is held constant at 10 nM while p38α is added to a final concentration of […]. Kinase reactions are incubated at room temperature and quenched after 120 minutes by the addition of 1× Progressive Binding Buffer A containing 1×IMAP beads (IMAP FP Progressive Screening Express Kit, Molecular Devices Catalog Number R8127). Inhibitor potency is calculated by fitting dose-response data to the 4-parameter logistical IC50 equation. The substrate selectivity is calculated as a ratio of p38α/PRAK:p38α/MK2 IC50 values. A substrate selective inhibitor will have a p38α/PRAK:p38α/MK2 IC50 ratio of >2 while a classical p38 inhibitor will have a ratio of between 0.5-2. […] By way of example, the enhanced therapeutic benefit could be associated with a reduction in inhibition of p38 mediated anti-inflammatory functions, such as IL-10 production and TAB1 phosphorylation. An increased safety profile is expected based, for example, on a reduced inhibition of p38 substrates, such as PPARg and CDC25 phosphatase and PLA2 involved in gluconeogenesis and cell cycle regulation, respectively.

TNFα = assay: LPS stimulated TNFα production in human PBMCs (ELISA); type: cell-based; conditions: PBMC, LPS 0.1 μg/ml, 18-24 hours, read-out: PBMC Cell, TNFα IC50
Protocol: Evaluation of the potency and efficacy of p38 inhibitors to block cytokine production is carried out using the human U937 cell line and purified human PBMCs (peripheral blood mononuclear cells). The U937 human pre-monocytic cell line is obtained from the American Type Culture Collection (Rockville, Md.). These cells are differentiated to a monocytic/macrophage phenotype as described by Burnette (Burnette et al., (2009). SD0006: a potent, selective and orally available inhibitor of p38 kinase, Pharmacology 84(1):42-60). Differentiated U937 cells are seeded into 96-well tissue culture plates (200,000 cells/well) in complete media. After 24 hours, the cells are pretreated for 60 minutes in the presence or absence of compound and then stimulated with LPS (lipopolysaccharide) (0.1 μg/mL) for 4 hours. Culture media are then collected for determination of TNFα or IL-6 levels by ELISA. Human PBMCs are isolated from leukopacks as described by Burnette (Burnette et al., (2009), op. cit.). The cells are seeded into 96-well tissue culture plates (200,000 cells/well) in complete media. After a one hour recovery period at 37° C., 5% CO2, the cells are pretreated for 60 minutes in the presence or absence of compound and then stimulated with LPS (0.1 μg/ml) for 18-24 hours. Culture media are then collected for determination of TNFα and IL1β by ELISA. Cytokine concentrations are extrapolated from recombinant protein standard curves using a four-parameter logistic model and solving for IC50 after iterating to the best least-squares fit. p38 inhibitors will show a dose dependent inhibition of LPS stimulated TNFα, and IL6 in differentiated U937 cells and a dose dependent inhibition of LPS stimulated TNFα, IL6 and IL1b in human PBMCs. As drugs that down-regulate TNFα, IL6 and IL1b are efficacious in a number of autoimmune, autoinflammatory inflammatory, cardiovascular and oncological diseases, it would be expected that p38 drugs that inhibit these cytokines and other enzymes and mediators of disease will be effective drugs. Species compounds of Formula (I), described hereinabove, evaluated in this assay, are expected to provide a therapeutic benefit in the treatment of p38 kinase mediated diseases, including lymphoma and inflammation.

p38α/PRAK = p38α/PRAK (Homo sapiens, UniProt Q16539); assay: p38α/PRAK cascade assay (IMAP, Hsp27 peptide phosphorylation); type: biochemical; conditions: Hsp27 peptide 1 μM, MgATP 10 μM, 120 minutes, read-out: p38/PRAK IC50
Sequence of p38α/PRAK (Q16539 whole entry): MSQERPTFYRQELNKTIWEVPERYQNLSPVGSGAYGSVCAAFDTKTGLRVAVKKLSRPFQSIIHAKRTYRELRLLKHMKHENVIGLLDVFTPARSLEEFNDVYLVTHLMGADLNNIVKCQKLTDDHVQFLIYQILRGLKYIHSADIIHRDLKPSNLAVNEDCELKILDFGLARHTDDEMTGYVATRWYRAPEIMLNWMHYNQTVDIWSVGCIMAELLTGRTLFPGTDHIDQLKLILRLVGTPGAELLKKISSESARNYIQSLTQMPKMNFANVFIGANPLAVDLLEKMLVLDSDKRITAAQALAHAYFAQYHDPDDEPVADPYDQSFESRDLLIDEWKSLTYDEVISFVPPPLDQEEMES
Protocol: as §1

Sequence of p38α/MK2 (Q16539 whole entry): as above
Sequence of p38α/MK2 (P49137 whole entry partner): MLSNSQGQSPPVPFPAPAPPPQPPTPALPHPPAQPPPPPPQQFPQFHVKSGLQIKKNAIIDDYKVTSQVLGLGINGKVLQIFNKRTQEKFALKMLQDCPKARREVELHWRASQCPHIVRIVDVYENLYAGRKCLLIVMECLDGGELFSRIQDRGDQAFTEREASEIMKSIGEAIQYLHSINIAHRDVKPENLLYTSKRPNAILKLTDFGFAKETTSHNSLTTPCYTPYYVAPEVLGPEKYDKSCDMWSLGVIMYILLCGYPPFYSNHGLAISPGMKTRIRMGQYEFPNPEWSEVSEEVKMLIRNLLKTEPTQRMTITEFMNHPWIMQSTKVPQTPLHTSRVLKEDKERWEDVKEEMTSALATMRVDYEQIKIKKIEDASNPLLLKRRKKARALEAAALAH

SMILES	IC50 (p38α/MK2)	Selectivity Ratio (p38α/MK2)	IC50 (TNFα)	IC50 (p38α/PRAK)
Cc1cccc(COc2nc(C)n(-c3cc(-c4ccnc(C(C)(C)O)n4)ccc3C)c(=O)c2Br)n1 [Example 13, 5-bromo-3-(5-(2-(2-hydroxypropan-2-yl)pyrimidin-4-yl)-2-methylphenyl)-2-methyl-6-((6-methylpyridin-2-yl)methoxy)pyrimidin-4(3H)-one]	83 nM	15.4	140 nM	1280 nM
Cc1cccc(COc2nc(C)n(-c3cc(-c4ccnc(C(C)(C)O)n4)ccc3C)c(=O)c2Cl)n1 (racemic) [Example 14, 5-chloro-3-(5-(2-(2-hydroxypropan-2-yl)pyrimidin-4-yl)-2-methylphenyl)-2-methyl-6-((6-methylpyridin-2-yl)methoxy)pyrimidin-4(3H)-one]	184 nM	17.9	250 nM	3300 nM
Cc1nc(COc2nc(C)n(-c3cc(-c4ccnc(C(C)(C)O)n4)ccc3C)c(=O)c2Br)cs1 [Example 11, 5-bromo-3-(5-(2-(2-hydroxypropan-2-yl)pyrimidin-4-yl)-2-methylphenyl)-2-methyl-6-((2-methylthiazol-4-yl)methoxy)pyrimidin-4(3H)-one]	62 nM	10.9	126 nM	675 nM
Cc1cccc(COc2nc(C)n(-c3cc(-c4ccnc(C(C)(C)O)n4)ccc3C)c(=O)c2Cl)n1 (single isomer, unassigned) [Example 16, (+)-5-chloro-3-(5-(2-(2-hydroxypropan-2-yl)pyrimidin-4-yl)-2-methylphenyl)-2-methyl-6-((6-methylpyridin-2-yl)methoxy)pyrimidin-4(3H)-one]	5030 nM	>6.0	3560 nM	
Cc1cccc(COc2nc(C)n(-c3cc(-c4ccnc(C(C)(C)O)n4)ccc3C)c(=O)c2Cl)n1 [Example 15, (−)-5-chloro-3-(5-(2-(2-hydroxypropan-2-yl)pyrimidin-4-yl)-2-methylphenyl)-2-methyl-6-((6-methylpyridin-2-yl)methoxy)pyrimidin-4(3H)-one]	52 nM	23.6	70 nM	1230 nM
Cc1nc(COc2nc(C)n(-c3cc(-c4ccnc(C(C)(C)O)n4)ccc3C)c(=O)c2Cl)co1 [Example 9, (−)-5-chloro-3-(5-(2-(2-hydroxypropan-2-yl)pyrimidin-4-yl)-2-methylphenyl)-2-methyl-6-((2-methyloxazol-4-yl)methoxy)pyrimidin-4(3H)-one]	126 nM	10.6	277 nM	1330 nM
Cc1cccc(COc2nc(C)n(-c3cc(-c4ccnc(C(C)(C)O)n4)ccc3C)c(=O)c2Cl)c1 [Example 5, 5-chloro-3-(5-(2-(2-hydroxypropan-2-yl)pyrimidin-4-yl)-2-methylphenyl)-2-methyl-6-((3-methylbenzyl)oxy)pyrimidin-4(3H)-one]	39 nM	14.9	40 nM	582 nM
COc1cccc(COc2nc(C)n(-c3cc(-c4ccnc(C(C)(C)O)n4)ccc3C)c(=O)c2Cl)c1 [Example 7, 5-chloro-3-(5-(2-(2-hydroxypropan-2-yl)pyrimidin-4-yl)-2-methylphenyl)-6-((3-methoxybenzyl)oxy)-2-methylpyrimidin-4(3H)-one]	62 nM	24	94 nM	1490 nM
Cc1nc(COc2nc(C)n(-c3cc(-c4ccnc(C(C)(C)O)n4)ccc3C)c(=O)c2Cl)cs1 [Example 12, 5-chloro-3-(5-(2-(2-hydroxypropan-2-yl)pyrimidin-4-yl)-2-methylphenyl)-2-methyl-6-((2-methylthiazol-4-yl)methoxy)pyrimidin-4(3H)-one]	76 nM	17.9	118 nM	1360 nM

Next, values leading:

IC50 (p38α/MK2)	Selectivity Ratio (p38α/MK2)	IC50 (TNFα)	IC50 (p38α/PRAK)	SMILES
44 nM	11.7	74 nM	514 nM	Cc1cc(COc2nc(C)n(-c3cc(-c4ccnc(C(C)(C)O)n4)ccc3C)c(=O)c2Cl)c(F)cc1F [Example 23, 5-chloro-6-((2,4-difluoro-5-methylbenzyl)oxy)-3-(5-(2-(2-hydroxypropan-2-yl)pyrimidin-4-yl)-2-methylphenyl)-2-methylpyrimidin-4(3H)-one]
40 nM	14.1	104 nM	566 nM	Cc1ccc(-c2ccnc(C(C)(C)O)n2)cc1-n1c(C)nc(OCc2ncc(F)cc2F)c(Cl)c1=O (racemic) [Example 19, 5-chloro-6-((3,5-difluoropyridin-2-yl)methoxy)-3-(5-(2-(2-hydroxypropan-2-yl)pyrimidin-4-yl)-2-methylphenyl)-2-methylpyrimidin-4(3H)-one]
15 nM	5.5	9.8 nM	83 nM	Cc1ccc(-c2ccnc(C(C)(C)O)n2)cc1-n1c(C)nc(OCc2ccc(F)cc2F)c(Cl)c1=O [Example 2, 5-chloro-6-(2,4-difluoro-benzyloxy)-3-{5-[2-(1-hydroxy-1-methyl-ethyl)-pyrimidin-4-yl]-2-methyl-phenyl}-2-methyl-3H-pyrimidin-4-one]
15 nM	5.1	12 nM	76 nM	Cc1ccc(-c2ccnc(C(C)(C)O)n2)cc1-n1c(C)nc(OCc2ccc(F)cc2F)c(Br)c1=O [Example 1, 5-bromo-6-((2,4-difluorobenzyl)oxy)-3-(5-(2-(2-hydroxypropan-2-yl)pyrimidin-4-yl)-2-methylphenyl)-2-methylpyrimidin-4(3H)-one]
19200 nM	>1.56			Cc1nc(COc2nc(C)n(-c3cc(-c4ccnc(C(C)(C)O)n4)ccc3C)c(=O)c2Cl)co1 (single isomer, unassigned) [Example 10, (+)-5-chloro-3-(5-(2-(2-hydroxypropan-2-yl)pyrimidin-4-yl)-2-methylphenyl)-2-methyl-6-((2-methyloxazol-4-yl)methoxy)pyrimidin-4(3H)-one]
5380 nM	2.82		15200 nM	Cc1ccc(-c2ccnc(C(C)(C)O)n2)cc1-n1c(C)nc(OCc2ncc(F)cc2F)c(Cl)c1=O [Example 20, (+)-5-chloro-6-((3,5-difluoropyridin-2-yl)methoxy)-3-(5-(2-(2-hydroxypropan-2-yl)pyrimidin-4-yl)-2-methylphenyl)-2-methylpyrimidin-4(3H)-one]

Source: patent US9056110B2, “Substituted pyrimidinone-phenyl-pyrimidinyl compounds” (Confluence Life Sciences, Inc., priority 2011, dated 2015)
